Reference: patent US8822463B2, “Methylcyclohexane derivatives and uses thereof” (Sk Biopharmaceuticals Co., Ltd., priority 2010, dated 2014)
pIC50: −log10 of the molar value. Read-outs that look alike come from different tables or passages of the source.

Tests used:
[1] = tested on: LPS-induced NO production in mouse microglia (BV2); experiment: LPS-induced NO production inhibition test, mouse microglia (BV2); format: cell-based; settings: BV-2, BV2 cells, 20 ng/ml LPS, 24 hours, Griess reagent
Procedure: (§1) Mouse monocytes (RAW) and mouse microglia (BV2) cells were cultured on a 96-well transparent plate (Nunc) in such a way that each of the wells contained 60,000 and 35,000 cells respectively. After 18 hours, when stabilized, the cells were treated with lipopolysaccharide (Sigma, USA, Cat No. L2630) in a morbid state derived from 20 ng/ml of Escherichia coli O111:B4 and 4 different concentrations (50 uM, 12.5 uM, 3.1 uM, and 0.8 uM) of the compounds synthesized according to Examples 1 to 55. Then, the cells were cultured for 24 hours, and a concentration of increased NO was measured. The NO concentration was determined by measuring absorption at a wavelength of 540 nm after a Griess reagent including 0.1% N-(1-naphthyl)ethylenediamine dihydrochloride, 1% sulfanilamide, and 2.5% phosphoric acid were added thereto.

[2] = tested on: LPS-induced NO production in mouse monocytes (RAW); experiment: LPS-induced NO production inhibition test, mouse monocytes (RAW); format: cell-based; settings: Monocyte, RAW cells, 20 ng/ml LPS, 24 hours, Griess reagent
Procedure: as §1

[3] = tested on: neuropathic pain (mechanical allodynia) in rats with caudal nerve damage; experiment: Pain relief test using animal model (caudal nerve damage neuropathic pain, mechanical allodynia); format: in vivo; settings: ip, rat, von Frey, reference concentration 30 mg/kg, read-out: Pain test results (% MPE, 50% tail withdrawal threshold)
Procedure: Male rats (Sprague-Dawley, 150-200 g, 6-week old, Orient Bio Co., Ltd) were purchased and acclimated in an animal chamber for one week. The animal chamber was alternately turned on and off at a time interval of 12 hours, at a temperature of 22 to 25° C., and in a relative humidity of 40-60%, and water and feed was supplied ad libitum to the rats.
The rats were placed in a round acryl container (5.5 15, 6.5 18 cm, which varied according to the size of body) and only the tails thereof were taken out of the container and placed on a plate. To confirm a pain behavior corresponding to a mechanical stimulus, an up-down method (J. Neurosci. Methods 53:55-63) was performed using a von Frey filament so as to measure “50% tail withdrawal threshold.
During all the steps before surgery, anesthesia was maintained with a mixed gas including 2-3% enflurane and 95% oxygen.
The compounds were each prepared as a solution form by using 5% DMSO, 5% Cremophore, and 90% distilled water on a volumetric basis. Each of the solutions was intraperitoneally administered in a volume of 3 ml per kg of a rat. The concentration of the compounds was controlled according to a compound and the concentration of reference was 30 mg/kg. […]
Anti-allodynic effects of the compounds were described as mean±SEM, and were compared each other by referring to “% MPE (the percentage of maximum possible effect),” and analyzed using one-way ANOVA and Bonferroni's t-test. […] [% MPE=(the threshold with respect to time after the drug treatment−the threshold at 0 hr)/(15−the threshold at 0 hr)×100]

[4] = at 1 hour after intraperitoneal administration
[5] = at 4 hours after intraperitoneal administration

Row | Compound | pIC50 [1] | pIC50 [2] | inhibition in vivo [3, 4] | inhibition in vivo [3, 5]
1 | O=C(Nc1ccccn1)OC1CCC(COC(=O)N2CCCC2)CC1 (centres unmarked) [Example 21, pyrrolidine-1-carboxylic acid 4-(pyridin-2-ylcarbamoyloxy)-cyclohexylmethyl ester] | 4.35 | 4.80 | 35.2% | 
2 | O=C(Nc1ccnc(Cl)c1)OC1CCC(COC(=O)N2CCCC2)CC1 (centres unmarked) [Example 23, pyrrolidine-1-carboxylic acid 4-(2-chloro-pyridin-4-ylcarbamoyloxy)-cyclohexylmethyl ester] | < 4.30 | 4.54 |  | 18.7%
3 | O=C(NC1CCC(COC(=O)N2CCCC2)CC1)OCc1ccccn1 (centres unmarked) [Example 40, pyrrolidine-1-carboxylic acid 4-(pyridin-2-ylmethoxycarbonylamino)-cyclohexylmethyl ester] | < 4.30 | < 4.30 |  | 11%
4 | O=C(NC1CCC(COC(=O)N2CCCC2)CC1)OCc1ccncc1 (centres unmarked) [Example 42, pyrrolidine-1-carboxylic acid 4-(pyridin-4-ylmethoxycarbonylamino)-cyclohexylmethyl ester] | < 4.30 | 4.30 |  | 57%
5 | O=C(NC1CCC(COC(=O)N2CCCC2)CC1)OCc1cccc[n+]1[O-] (centres unmarked) [Example 51, pyrrolidine-1-carboxylic acid 4-(1-oxy-pyridin-2-ylmethoxycarbonylamino)-cyclohexylmethyl ester] | < 4.30 | 4.30 |  | 
6 | O=C(NC1CCC(COC(=O)N2CCCC2)CC1)OCc1ccc[n+]([O-])c1 (centres unmarked) [Example 52, pyrrolidine-1-carboxylic acid 4-(1-oxy-pyridin-3-ylmethoxycarbonylamino)-cyclohexylmethyl ester] | < 4.30 | 4.65 |  | 
7 | O=C(NC1CCC(COC(=O)N2CCCC2)CC1)OCc1cc[n+]([O-])cc1 (centres unmarked) [Example 53, pyrrolidine-1-carboxylic acid 4-(1-oxy-pyridin-4-ylmethoxycarbonylamino)-cyclohexylmethyl ester] | < 4.30 | 4.47 |  | 
8 | O=C(NCc1ccncc1)OC1CCC(CNC(=O)N2CCCC2)CC1 (centres unmarked) [Example 54, pyridin-4-ylmethyl-carbamic acid 4-{[(pyrrolidine-1-carbonyl)-amino]-methyl}-cyclohexyl ester] | < 4.30 | 4.31 | 10.5% | 
9 | O=C(NCc1ccncc1)OC1CCC(CNC(=O)C2CCCC2)CC1 (centres unmarked) [Example 55, pyridin-4-ylmethyl-carbamic acid 4-[(cyclopentanecarbonyl-amino)-methyl]-cyclohexyl ester] | < 4.30 | 4.59 |  | 

The next compounds have a higher pIC50 [1] than those just listed; values first:

Row | pIC50 [1] | pIC50 [2] | Compound | inhibition in vivo [3, 4] | inhibition in vivo [3, 5]
10 | 5.24 | < 4.30 | O=C(NCc1cccnc1)OC1CCC(COC(=O)N2CCCC2)CC1 (centres unmarked) [Example 8, pyrrolidine-1-carboxylic acid 4-(pyridin-3-ylmethylcarbamoyloxy)-cyclohexylmethyl ester] | 11% | 
11 | 4.71 | 4.70 | Cc1cccc(CNC(=O)OC2CCC(COC(=O)N3CCCC3)CC2)n1 (centres unmarked) [Example 15, pyrrolidine-1-carboxylic acid 4-(6-methyl-pyridin-2-ylmethylcarbamoyloxy)-cyclohexylmethyl ester] | 29.2% | 
12 | 4.97 | 4.55 | O=C(NCc1ccnc(Cl)c1)OC1CCC(COC(=O)N2CCCC2)CC1 (centres unmarked) [Example 16, pyrrolidine-1-carboxylic acid 4-(2-chloro-pyridin-4-ylmethylcarbamoyloxy)-cyclohexylmethyl ester] |  | 16.4%
13 | 4.90 | 4.53 | O=C(NCc1ccc(Cl)nc1)OC1CCC(COC(=O)N2CCCC2)CC1 (centres unmarked) [Example 17, pyrrolidine-1-carboxylic acid 4-(6-chloro-pyridin-3-ylmethylcarbamoyloxy)-cyclohexylmethyl ester] | 5.8% | 
14 | 4.74 | 5.24 | O=C(NCc1cccnc1Cl)OC1CCC(COC(=O)N2CCCC2)CC1 (centres unmarked) [Example 18, pyrrolidine-1-carboxylic acid 4-(2-chloro-pyridin-3-ylmethylcarbamoyloxy)-cyclohexylmethyl ester] | 22.5% | 
15 | 4.42 | 4.30 | O=C(Nc1ccncc1)OC1CCC(COC(=O)N2CCCC2)CC1 (centres unmarked) [Example 20, pyrrolidine-1-carboxylic acid 4-(pyridin-4-ylcarbamoyloxy)-cyclohexylmethyl ester] |  | 22%
16 | 4.99 | 4.87 | Cc1ncccc1COC(=O)NC1CCC(COC(=O)N2CCCC2)CC1 (centres unmarked) [Example 48, pyrrolidine-1-carboxylic acid 4-(2-methyl-pyridin-3-ylmethoxycarbonylamino)-cyclohexylmethyl ester] |  | 
17 | 4.99 | 4.92 | Cc1cccc(COC(=O)NC2CCC(COC(=O)N3CCCC3)CC2)n1 (centres unmarked) [Example 49, pyrrolidine-1-carboxylic acid 4-(6-methyl-pyridin-2-ylmethoxycarbonylamino)-cyclohexylmethyl ester] |  | 
18 | 4.85 | 5.24 | O=C(NC1CCC(COC(=O)N2CCCC2)CC1)OCc1ccc(C(F)(F)F)nc1 (centres unmarked) [Example 50, pyrrolidine-1-carboxylic acid 4-(6-trifluoromethyl-pyridin-3-ylmethoxycarbonylamino)-cyclohexylmethyl ester] |  | 
